Measurements published in ChEMBL document CHEMBL4017441, “Mitigating the inhibition of human bile salt export pump by drugs: opportunities provided by physicochemical property modulation, in silico modeling, and structural modification” (Drug Metab Dispos, 2012).
pIC50: −log10 of the molar value. Structures can show the parent of a compound that is named as a salt.

Target: Bile salt export pump (Homo sapiens, UniProt O95342)
Assay type: ADME

| Compound | pIC50 |
| --- | --- |
| CC12CC3CC(C)(C1)CC(N)(C3)C2 [MEMANTINE] | < 3.00 |
| C[N+]1(C)CCCC(OC(=O)C(O)(c2ccccc2)c2ccccc2)C1 (stereo unspecified) [MEPENZOLATE BROMIDE] | < 3.00 |
| Cc1ccccc1OCC(O)CO (stereo unspecified) [MEPHENESIN] | < 3.00 |
| CCC1(c2ccccc2)NC(=O)N(C)C1=O (stereo unspecified) [MEPHENYTOIN] | < 3.00 |
| Cc1cc2c(OCC(O)CNC(C)C)cccc2[nH]1 (stereo unspecified) [MEPINDOLOL] | 4.44 to 4.45 |
| CCCNC(C)(C)COC(=O)c1ccccc1 [MEPRYLCAINE] | < 3.00 |
| C[C@H](N)[C@H](O)c1cccc(O)c1 [METARAMINOL] | < 3.00 |
| CN1C[C@H](CNC(=O)OCc2ccccc2)C[C@@H]2c3cccc4c3c(cn4C)C[C@H]21 [METERGOLINE] | > 5.00 |
| COc1ccccc1OCC(O)COC(N)=O (stereo unspecified) [METHOCARBAMOL] | < 3.00 |
| COc1ccc(OC)c(C(O)C(C)N)c1 (stereo unspecified) [METHOXAMINE] | < 3.00 |
| C[C@H]1C[C@@H]2[C@H]([C@@H](O)C[C@@]3(C)[C@H]2CC[C@]3(O)C(=O)CO)[C@@]2(C)C=CC(=O)C=C12 [METHYLPREDNISOLONE] | 4.48 |
| CC(CN(C)C)CN1c2ccccc2Sc2ccccc21 (stereo unspecified) [METHYLPROMAZINE] | 4.13 |
| Cc1cc(=O)[nH]c(=S)[nH]1 [METHYLTHIOURACIL] | < 3.00 |
| CC[C@@H](CO)NC(=O)[C@@H]1C=C2c3cccc4c3c(cn4C)C[C@H]2N(C)C1 [METHYSERGIDE] | 4.48 |
| CC(=O)Nc1c(I)c(C(=O)N[C@H]2C(O)O[C@H](CO)[C@@H](O)[C@@H]2O)c(I)c(N(C)C(C)=O)c1I (stereo partly specified) [METRIZAMIDE] | < 3.00 |
| CC(C)(C(=O)c1cccnc1)c1cccnc1 [METYRAPONE] | 3.64 |
| CN1CCN2c3ccccc3Cc3ccccc3C2C1 (stereo unspecified) [MIANSERIN] | 4.33 |
| Clc1ccc(COC(Cn2ccnc2)c2ccc(Cl)cc2Cl)c(Cl)c1 (stereo unspecified) [MICONAZOLE] | > 5.00 |
| CCCc1c2nc(C(=O)O)cc(NC)c2cc2c(=O)cc(C(=O)O)oc12 [MINOCROMIL] | < 3.00 |
| Clc1ccc(C(c2ccccc2Cl)C(Cl)Cl)cc1 (stereo unspecified) [MITOTANE] | > 5.00 |
| COc1c(N2C[C@@H]3CCCN[C@@H]3C2)c(F)cc2c(=O)c(C(=O)O)cn(C3CC3)c12 [MOXIFLOXACIN] | < 3.00 |
| CC(C)(C)NCC(O)COc1cccc2c1CC(O)C(O)C2 (stereo unspecified) [NADOLOL] | < 3.00 |

| Compound | pIC50 |
| --- | --- |
| CCN(CC)CCOC(=O)C(Cc1cccc2ccccc12)CC1CCCO1 (stereo unspecified) [NAFRONYL] | > 4.96 |
| COc1ccccc1N1CCN(CC(O)COc2cccc3ccccc23)CC1 (stereo unspecified) [NAFTOPIDIL] | > 5.00 |
| C=CCN1CC[C@]23c4c5ccc(O)c4O[C@H]2C(=O)CC[C@@]3(O)[C@H]1C5 [NALOXONE] | 3.26 |
| O=C1CC[C@@]2(O)[C@H]3Cc4ccc(O)c5c4[C@@]2(CCN3CC2CC2)[C@H]1O5 [NALTREXONE] | < 3.00 |
| c1ccc2c(CC3=NCCN3)cccc2c1 [NAPHAZOLINE] | < 3.00 |
| COc1ccc2cc([C@H](C)C(=O)O)ccc2c1 [NAPROXEN] | < 3.00 |
| CC[C@@H](Nc1c(Nc2cccc(C(=O)N(C)C)c2O)c(=O)c1=O)c1ccc(C)o1 [NAVARIXIN ANHYDROUS] | > 5.00 |
| CCCc1c2oc(C(=O)O)cc(=O)c2cc2c(=O)cc(C(=O)O)n(CC)c12 [NEDOCROMIL] | < 3.00 |
| CCc1nn(CCCN2CCN(c3cccc(Cl)c3)CC2)c(=O)n1CCOc1ccccc1 [NEFAZODONE] | > 5.00 |
| O=c1ncn2nc(Sc3ccc(F)cc3F)ccc2c1-c1c(Cl)cccc1Cl [NEFLAMAPIMOD] | > 5.00 |
| CN(C)C(=O)Oc1cccc([N+](C)(C)C)c1 [NEOSTIGMINE] | < 3.00 |
| Cc1ccnc2c1NC(=O)c1cccnc1N2C1CC1 [NEVIRAPINE] | 3.53 |
| COC(=O)C1=C(C)NC(C)=C(C(=O)OCCN(C)Cc2ccccc2)C1c1cccc([N+](=O)[O-])c1 (stereo unspecified) [NICARDIPINE] | > 5.00 |
| CN1CCC[C@H]1c1cccnc1 [NICOTINE] | < 3.00 |
| COC(=O)C1=C(C)NC(C)=C(C(=O)OC)C1c1ccccc1[N+](=O)[O-] [NIFEDIPINE] | 4.73 |
| COC(=O)C1=C(C#N)NC(C)=C(C(=O)OC(C)C)C1c1cccc([N+](=O)[O-])c1 (stereo unspecified) [NILVADIPINE] | > 5.00 |
| NC(=O)c1cc([N+](=O)[O-])cc([N+](=O)[O-])c1 [NITROMIDE] | 3.73 |
| CC(CCc1ccccc1)NC(C)C(O)c1ccc(O)cc1 (stereo unspecified) [NYLIDRIN] | 3.55 |
| CC1COc2c(N3CCN(C)CC3)c(F)cc3c(=O)c(C(=O)O)cn1c23 (stereo unspecified) [OFLOXACIN] | < 3.00 |
| Cc1ccccc1C(OCCN(C)C)c1ccccc1 (stereo unspecified) [ORPHENADRINE] | < 3.00 |
| C[C@@H]1O[C@@H](O[C@H]2C[C@@H](O)[C@]3(CO)[C@H]4[C@H](O)C[C@]5(C)[C@@H](C6=CC(=O)OC6)CC[C@]5(O)[C@@H]4CC[C@]3(O)C2)[C@H](O)[C@H](O)[C@H]1O [OUABAIN] | < 3.00 |

| Compound | pIC50 |
| --- | --- |
| CNCC(O)c1ccc(O)cc1 (stereo unspecified) [OXEDRINE] | < 3.00 |
| CN(C(=O)CN(CCO)CC(=O)N(C)C(C)(C)Cc1ccccc1)C(C)(C)Cc1ccccc1 [OXETHAZAINE] | > 5.00 |
| CCCOc1ccc2nc(NC(=O)OC)[nH]c2c1 [OXIBENDAZOLE] | < 3.00 |
| C=CCOc1ccccc1OCC(O)CNC(C)C (stereo unspecified) [OXPRENOLOL] | < 3.00 |
| Oc1cccc2cccnc12 [OXYQUINOLINE] | < 3.00 |
| CC(C)(CO)[C@@H](O)C(=O)NCCC(=O)O [PANTOTHENIC ACID] | < 3.00 |
| COc1ccc(Cc2nccc3cc(OC)c(OC)cc23)cc1OC [PAPAVERINE] | > 5.00 |
| CCCCc1ccc2[nH]c(NC(=O)OC)nc2c1 [PARBENDAZOLE] | < 3.00 |
| Fc1ccc([C@@H]2CCNC[C@H]2COc2ccc3c(c2)OCO3)cc1 [PAROXETINE HYDROCHLORIDE] | 4.16 |
| N=C(N)c1ccc(OCCCCCOc2ccc(C(=N)N)cc2)cc1 [PENTAMIDINE] | < 3.00 |
| C1CCc2nnnn2CC1 [PENTYLENETETRAZOL] | < 3.00 |
| C1CCC(C(CC2CCCCN2)C2CCCCC2)CC1 (stereo unspecified) [PERHEXILINE] | 4.84 |
| OCCN1CCN(CCCN2c3ccccc3Sc3ccc(Cl)cc32)CC1 [PERPHENAZINE] | 4.46 |
| NC(=O)NC(=O)Cc1ccccc1 [PHENACEMIDE] | < 3.00 |
| NNCCc1ccccc1 [PHENELZINE] | < 3.05 |
| CC(Oc1ccccc1)C(=O)N[C@@H]1C(=O)N2[C@@H]1SC(C)(C)[C@@H]2C(=O)O (stereo partly specified) [PHENETHICILLIN] | > 5.00 |
| [H]/N=C(/N)N/C(=N/[H])NCCc1ccccc1 [PHENFORMIN] | < 3.00 |
| CN(C)CCC(c1ccccc1)c1ccccn1 (stereo unspecified) [PHENIRAMINE MALEATE] | < 3.00 |
| CN1C(=O)CC(c2ccccc2)C1=O (stereo unspecified) [PHENSUXIMIDE] | < 3.00 |
| CC(N/C(=N\C#N)Nc1ccncc1)C(C)(C)C (stereo unspecified) [PINACIDIL ANHYDROUS] | 3.79 |
| CCc1ccc(CCOc2ccc(CC3SC(=O)NC3=O)cc2)nc1 (stereo unspecified) [PIOGLITAZONE] | 6.58 |
| CCN1CCN(C(=O)N[C@@H](C(=O)N[C@@H]2C(=O)N3[C@@H]2SC(C)(C)[C@@H]3C(=O)O)c2ccccc2)C(=O)C1=O [PIPERACILLIN] | 3.70 |

| Compound | pIC50 |
| --- | --- |
| CCCCOCCOCCOCc1cc2c(cc1CCC)OCO2 [PIPERONYL BUTOXIDE] | > 5.00 |
| CN1CCN(CC(=O)N2c3ccccc3C(=O)Nc3cccnc32)CC1 [PIRENZEPINE] | < 3.00 |
| NS(=O)(=O)c1cc(C(=O)O)cc(N2CCCC2)c1Oc1ccccc1 [PIRETANIDE] | < 3.10 |
| C[n+]1ccccc1/C=N/O [PRALIDOXIME] | < 3.00 |
| O=C(C1CCCCC1)N1CC(=O)N2CCc3ccccc3C2C1 (stereo unspecified) [PRAZIQUANTEL] | 4.22 |
| COc1cc2nc(N3CCN(C(=O)c4ccco4)CC3)nc(N)c2cc1OC [PRAZOSIN] | 3.76 |
| COc1cc(NC(C)CCCN)c2ncccc2c1 (stereo unspecified) [PRIMAQUINE] | 4.27 |
| CCCC(C(=O)OCCN(CC)CC)(c1ccccc1)c1ccccc1 [PROADIFEN] | > 4.88 |
| CCCN(CCC)S(=O)(=O)c1ccc(C(=O)O)cc1 [PROBENECID] | 3.23 |
| CCCc1c2oc(C(=O)O)cc(=O)c2cc2c(=O)cc(C(=O)O)oc12 [PROBICROMIL] | < 3.00 |
| CC(C)(Sc1cc(C(C)(C)C)c(O)c(C(C)(C)C)c1)Sc1cc(C(C)(C)C)c(O)c(C(C)(C)C)c1 [PROBUCOL] | < 3.00 |
| CCN(CC)CCOC(=O)c1ccc(N)cc1 [PROCAINE] | < 3.00 |
| CCCc1c2c(cc3c(=O)cc(C(=O)O)oc13)CCCC2 [PROCROMIL] | 3.22 |
| CCCNCC(O)COc1ccccc1C(=O)CCc1ccccc1 (stereo unspecified) [PROPAFENONE] | 4.27 |
| CC(C)[N+](C)(CCOC(=O)C1c2ccccc2Oc2ccccc21)C(C)C [PROPANTHELINE BROMIDE] | 3.54 |
| CC(Cc1ccc2c(c1)OCO2)NCC(O)c1ccc(O)c(O)c1 (stereo unspecified) [PROTOKYLOL HYDROCHLORIDE] | < 3.01 |
| CNCCCC1c2ccccc2C=Cc2ccccc21 [PROTRIPTYLINE] | 3.89 |
| CCCc1c2c(c(O)c3c(=O)cc(C(=O)O)oc13)CCCC2 [PROXICROMIL] | 4.52 |
| CN(C)C(=O)Oc1ccc[n+](C)c1 [PYRIDOSTIGMINE BROMIDE] | < 3.00 |
| COc1ccc(CN(CCN(C)C)c2ccccn2)cc1 [PYRILAMINE] | < 3.00 |
